Assay results: patent US20120071464A1, “METHOD OF TREATMENT OF OBSESSIVE COMPULSIVE DISORDER WITH ONDANSETRON” (priority 2009, published 2012)
Where “and” joins values, the source holds several entries; their conditions need not be identical. Equal entries are not always repeated. Entries after “also recorded” stand apart in the source; their conditions may differ.

Tests used:
[1] = test system: mesenteric bed or the nerves in the heart; conditions: animal studies; cited from earlier work
[2] = test system: OCD patients resistant to SRI plus antipsychotic therapy; test: Ondansetron augmentation therapy (SRI and antipsychotic), single-blind 12-week study; assay type: in vivo, human
Excerpt: Between March 2008 and November 2008, fourteen adults aged 18 to 55 were enrolled in a study at the Institute for Neuroscience, Florence, Italy. […] All diagnoses were established utilizing a structured interview, the Structured Clinical Interview for DSM IV Axis I Disorders (SCID I). (See Spitzer, R. L. et al. ARCH GEN PSYCHIATRY 49(8):624-649) Potential subjects with a history of alcohol or substance abuse, current severe depressive symptoms, bipolar disorder, panic disorder, schizophrenia, other psychiatric conditions, heart disease, arrhythmia, liver problems (including cirrhosis), seizures, glaucoma or serious medical disease were excluded. Patients with hoarding as their only OCD symptom and women of childbearing potential not using a medically acceptable contraceptive method were also excluded. After being fully informed about the study and signing an informed consent approved by the Internal Institutional Review Board, subjects were administered an ondansetron hydrochloride (oral solution) dosage of 0.25 mg twice a day for 6 weeks, followed by 0.5 mg twice a day for 6 weeks for a total observation period of 12 weeks. […] The Y-BOCS, Montgomery-Asberg Depression Rating Scale (MADRS) (see Montgomery, S. A., BR J PSYCHIATRY 1979; 134:382-389) was administered at screening and baseline, and these assessments were repeated at every follow-up visit at 2-week intervals, along with the Clinical Global Impressions-Improvement (CGI-I) rating (see Guy, W. ECDEU Assessment Manual for Psychopharmacology. US Dept Health, Education, and Welfare publication (ADM) 76-338. Rockville, Md.: National Institute of Mental Health; 1976:218-222) and an unpublished Drug Effect scale. The Drug Effect scale asked subjects to rate “How anxious are you now?” on a scale of zero (not at all) to 10 (“the most anxious I have ever been”). Similar rating questions have been “Do you experience appearance or increment in frequency of headaches?”, “Do you experience appearance or increment in frequency of headaches fatigue?” and “Do you experience appearance or increment in frequency of headaches constipation” and so on regarding other common ondansetron side effects (diarrhea, urinary retention, itching, and dizziness). Furthermore, each evening during the first week of study medication, a study psychiatrist called the subject to ask for major or unexpected collateral effects (as chest pain, an unexplained skin rash, or tremors.). […] (See […]. et al., Am J PSYCHIATRY 1997; 154:320-321) Subjects with MADRS scores ≧18 were excluded. Ratings were administered by an investigator who was blind to the treatment condition of the patients. Given the small sample size, mean changes from baseline in rating scales were tested with a non-parametric method based on ranks (Wilcoxon signed rank test), using a two-tailed significance level of p≦0.05. Relationships among rated and demographical variables were tested with Spearman's rank correlation tests, using a two-tailed significance level of p≦0.05. Age, baseline OCD severity, and depressive symptoms were controlled for by stratifying through the Mantel-Haenszel χ2 test. Body mass index (BMI) was adjusted given the differences of ondansetron bioavailability according to BMI.

[3] = test system: patients with treatment-resistant OCD under stable treatment with SRIs; test: Ondansetron augmentation therapy (SRI), single-blind 12-week study with 4-week discontinuation follow-up; assay type: in vivo, human; set-up: average reduction in CGI scores for the whole group / YBOCS % Reduction, 6 Weeks: concentration or dose not given beside the values; conditions: for worsening of YBOCS symptoms during the discontinuation phase: after Week 12
Protocol: Twenty-one patients with a DSM-IV diagnosis of treatment-resistant OCD, under stable treatment with SRIs approved by the FDA for OCD therapy, received 12 weeks of single-blind ondansetron augmentation initiated at a dose of 0.25 mg twice daily for 2 weeks, and titrated to 0.5 mg twice daily for 10 weeks. Patients were rated every two weeks using the Yale Brown Obsessive Compulsive Scale (YBOCS) and Clinical Global Impressions Scale (CGI). Treatment-resistant patients were defined as having completed an adequate trial of SRIs at a moderate to high dose for at least 12 weeks and still having a YBOCS severity of >24, and CGI-Severity of ≧4. Treatment response was defined as an additional 25% reduction in YBOCS score from YBOCS score at the initiation of ondansetron augmentation, an end of treatment (EOT) period YBOCS of ≦24, and CGI-Improvement (CGI-I) of ≦2. Additionally, ondansetron was discontinued after 12 weeks and patients were followed up for another 4 weeks for relapse in YBOCs symptoms.

[4] = end of 6th week, non responders (n = 5)
[5] = end of 6th week, responders (n = 9)
[6] = end of 12th week, non responders (n = 5)
[7] = end of 12th week, responders (n = 9)
[8] = individual patients 1-14, versus baseline
[9] = end of 6th week, non responders (n = 9)
[10] = end of 12th week, non responders (n = 9)
[11] = end of 12th week, responders (n = 12)
[12] = individual patients, versus baseline
[13] = individual patients, EC: week 1 score carried forward

In the case of Cc1nccn1CC1CCc2c(c3ccccc3n2C)C1=O (stereo not drawn) [ondansetron], the “effect on the mesenteric bed or the nerves in the heart” value [1] is listed as “did not appear to have effect on the mesenteric bed or the nerves in the heart”, the “average YBOCS score change of the whole group (decrease)” value ([2]; 6 weeks, n = 14) is listed as 16% and the “YBOCS score decrease, Patient 11” value ([2]; 12th week, with citalopram 60 mg/day and risperidone 2 mg/day) is listed as 35%. For the same compound, the “responders to ondansetron among patients on risperidone” value ([2]; 12 weeks, six of seven patients) was 86%, the “side effects throughout the study (severity)” value ([2]; 12 weeks, up to 1 mg/day) was “mild to moderate” and the “patients meeting YBOCS criteria for treatment response (reduction >25%)” value ([2]; end of 6th week, 3/14 patients) was 21.4%. The “CGI (mean, SD)” value [2, 4] was 4.6 (1.5), the “MADRS (mean, SD)” value [2, 4] was 8.0 (4.0) and the “YBOCS (mean, SD)” value [2, 4] was 22.8 (3.8). For the same compound, the “CGI (mean, SD)” value [2, 5] was 3.4 (1.6), the “MADRS (mean, SD)” value [2, 5] was 6.7 (2.4) and the “YBOCS (mean, SD)” value ([2]; end of 6th week, responders (n = 9), 0.25 mg twice a day added to SRI + antipsychotic) was 22.6 (4.2). The “CGI (mean, SD)” value [2, 6] was 4.8 (1.3), the “MADRS (mean, SD)” value [2, 6] was 7.6 (3.8) and the “YBOCS (mean, SD)” value [2, 6] was 21.4 (6.1). For the same compound, the “CGI (mean, SD)” value [2, 7] was 2.3 (1.2), the “MADRS (mean, SD)” value [2, 7] was 6.8 (2.0) and the “YBOCS (mean, SD)” value ([2]; end of 12th week, responders (n = 9), 0.5 mg twice a day in weeks 7-12) was 20.8 (4.1). For the same compound, the “average YBOCS change score of the whole group (decrease)” value ([2]; end of 12 weeks, n = 14) was 23% and 23.2%, the “decreased appetite (number of patients)” value ([2]; first 2 weeks of treatment) was “two” and the “headache (number of patients)” value ([2]; first 2 weeks of treatment) was “two”. For the same compound, the significant side effects ([2]; fourteen subjects) was “None of the fourteen subjects experienced significant side effects or worsening of OC symptoms; also recorded: None of the subjects experienced significant or lasting side effects”, the “Mean MADRS scores” value ([2]; from baseline to the end of week 1) was “did not change significantly” and the “YBOCS Score, 6 Weeks” value ([2]; individual patients 1-14) was 25 (3×) and 28 and 17 (2×) and 16 and 27 and 26 and 24 (3×) and 19 and 21. The “YBOCS Score, 12 Weeks” value ([2]; individual patients 1-14) was 25 (3×) and 15 (2×) and 14 and 30 and 23 and 22 (2×) and 24 and 18 and 17 and 20, the “Percent Reduction at 6 weeks (YBOCS)” value [2, 8] was 3.84% and 28.57% and 20.00% (2×) and 15.00% and 12.90% and 21.20% and 31.42% and 27.27% and 20.80% and 4.54% and 10.52% and .00% and 19.32% and the “Percent Reduction at 12 weeks (YBOCS)” value [2, 8] was 3.84% and 28.57% (2×) and 25.00% (2×) and 30.00% and 3.22% and 27.27% (2×) and 37.14% and 22.72% and 21.05% and 16.60% and 29.03%. For the same compound, the “mild increase in anxiety levels (number of patients)” value ([2]; lasted only one night) was “One”, the “Clinical Global Impressions-Improvement (CGI-I) scores” value ([2]; through week 12 (FIG. 4)) was “improved concurrent with improvement in the YBOCS scores” and the “mean pulse rate or mean blood pressure” value ([2]; throughout the study) was “No change”. The “course after discontinuation of the ondansetron” value ([2]; two responder patients) was “experienced worsening”, the tolerability of treatment ([3]; 12 weeks, up to 0.5 mg twice daily) was “well tolerated” and the “% Decrease in YBOCS Scores” value ([3]; All Patients, week 2) was 12.66%. The “Avg YBOCS Scores” value ([3]; All Patients, week 2) was 26.29, the “% Decrease in YBOCS Scores” value ([3]; All Patients, week 4) was 16.93% and the “Avg YBOCS Scores” value ([3]; All Patients, week 4) was 25. The “% Decrease in YBOCS Scores” value ([3]; All Patients, week 6) was 19.3%, the “Avg YBOCS Scores” value ([3]; All Patients, week 6) was 24.29 and the “% Decrease in YBOCS Scores” value ([3]; All Patients, week 8) was 21.99%. The “Avg YBOCS Scores” value ([3]; All Patients, week 8) was 23.48, the “% Decrease in YBOCS Scores” value ([3]; All Patients, week 10) was 24.21% and the “Avg YBOCS Scores” value ([3]; All Patients, week 10) was 22.81. For the same compound, the “% Decrease in YBOCS Scores” value ([3]; All Patients, week 12) was 26.27%, the “Avg YBOCS Scores” value ([3]; All Patients, week 12) was 22.19 and the “Avg YBOCS Scores” value ([3]; All Patients, week 14 (ondansetron discontinued after week 12)) was 24.95. The “Avg YBOCS Scores” value ([3]; All Patients, week 16 (ondansetron discontinued after week 12)) was 25.43, the “% Decrease in YBOCS Scores” value ([3]; Non-Responders, week 2) was 2.93% and the “% Decrease in YBOCS Scores” value ([3]; Non-Responders, week 4) was 2.93%. The “% Decrease in YBOCS Scores” value ([3]; Non-Responders, week 6) was 2.56%, the “% Decrease in YBOCS Scores” value ([3]; Non-Responders, week 8) was 2.2% and the “% Decrease in YBOCS Scores” value ([3]; Non-Responders, week 10) was 1.47%. For the same compound, the “% Decrease in YBOCS Scores” value ([3]; Non-Responders, week 12) was 2.93%, the “% Decrease in YBOCS Scores” value ([3]; Responders, week 2) was 20.06% and the “% Decrease in YBOCS Scores” value ([3]; Responders, week 4) was 27.58%. The “% Decrease in YBOCS Scores” value ([3]; Responders, week 6) was 32.03%, the “% Decrease in YBOCS Scores” value ([3]; Responders, week 8) was 37.05% and the “% Decrease in YBOCS Scores” value ([3]; Responders, week 10) was 41.5%. The “% Decrease in YBOCS Scores” value ([3]; Responders, week 12) was 44.01%, the “patients experiencing a treatment response in 12 weeks or less” value ([3]; Twelve of the 21 patients) was 57% and the “difference between YBOCS score at baseline and after 12 weeks, non-responders” value ([3]; after 12 weeks) was 2.9%. For the same compound, the “reduction in CGI-I from baseline, responders” value ([3]; after 12 weeks) was 77%, the “reduction in YBOCS from baseline, responders” value ([3]; after 12 weeks) was 44% and the “worsening of YBOCS symptoms during the discontinuation phase” value ([3]; all patients) was 14.6%. For the same compound, the “worsening of YBOCS symptoms during the discontinuation phase” value ([3]; responders) was 38.3%, the “patients experiencing response within the first 6 weeks” value ([3]; eight of 21 patients, 25% improvement in YBOCS, EOT YBOCS <24, CGI-I=1-2) was 38% and the “CGI (mean, SD)” value [3, 9] was 4.63 (0.5). The “YBOCS (mean, SD)” value [3, 9] was 29.56 (4.0), the “CGI (mean, SD)” value ([3]; end of 6th week, responders (n = 12)) was 1.92 (0.7) and the “YBOCS (mean, SD)” value ([3]; end of 6th week, responders (n = 12), added to SRI) was 20.33 (3.8). The “CGI (mean, SD)” value [3, 10] was 4.88 (0.4), the “YBOCS (mean, SD)” value [3, 10] was 29.44 (4.8) and the “CGI (mean, SD)” value [3, 11] was 1.17 (0.4). For the same compound, the “YBOCS (mean, SD)” value [3, 11] was 16.75 (2.7), the “CGI-I Score, 6 Weeks” value ([3]; individual patients) was 2 (7×) and 3 (2×) and 5 (6×) and 1 (3×) and 4 (3×) and the “CGI-I Score, 12 Weeks” value ([3]; individual patients) was 1 (10×) and 5 (8×) and 4 and 2 (2×). For the same compound, the “YBOCS % Reduction, 6 Weeks” value [3, 12] was 31.25% and 34.48% and 9.68% and 16.00% and 32.14% and 34.38% and 42.42% and 28.95% and 27.27% and 7.69% and 41.67% and 0.00% (3×) and 5.00% and 37.04% and 19.35% and −3.57% (2×) and 40.74% and 6.06%, the “YBOCS % Reduction, 12 Weeks” value [3, 12] was 34.38% and 41.38% and 9.68% and 44.00% and 42.86% and 50.00% and 51.52% and 44.74% and 42.42% and 11.54% and 45.83% and 13.79% and 2.50% and −6.25% and 48.15% and 38.71% and −7.14% and −3.57% and 44.44% and −3.85% and 9.09% and the “YBOCS Score, 6 Weeks” value [3, 13] was 22 and 19 (3×) and 28 and 21 (2×) and 27 and 24 (2×) and 14 and 29 (3×) and 38 and 32 and 17 and 25 and 16 and 26 and 31. The “YBOCS Score, 12 Weeks” value [3, 13] was 21 (2×) and 17 and 28 and 14 (2×) and 16 (3×) and 19 (2×) and 23 and 13 and 25 and 39 and 34 and 30 (2×) and 29 and 15 and 27, the “average reduction in CGI scores for the whole group” value ([3]; n = 21, 12 weeks) was 46% and the “average reduction in YBOCS-rated symptoms of the whole group” value ([3]; n = 21, 12 weeks) was 26.3%.
